Results on 1 substance are retold here after US20170362590A1, “PHARMACEUTICAL COMPOSITIONS COMPRISING MICRORNA” (OREGON HEALTH & SCIENCE UNIVERSITY, priority 2016, published 2017).

For data set [1], the system named is HUVEC. As to the kind of experiment: HUVEC cell proliferation assay. It is filed as cell-based, human.
For data set [2], the system named is MRE11a, RAD50 and NBN. As to the kind of experiment: Target validation in HUVEC (Western blot, qPCR). It is filed as cell-based, human. Particulars: qPCR and immunofluorescence. As for the experimental part:
After treatment, cells were washed in phosphate-buffered saline (PBS) and prepared in RIPA lysis buffer (Sigma) supplemented with Complete Protease inhibitor cocktail (ROCHE) and Phosphatase inhibitors cocktail 2 and 3 (Sigma). Cells were harvested by scraping, and proteins were analyzed by Western blot. Equivalent amounts of protein were loaded on a 4-12% gradient SDS-polyacrylamide gel (BioRAD) and transferred for 30 min to a TransBlot turbo (BioRAD) nitrocellulose membrane. Membranes were blocked in 5% milk or 3% BSA and incubated with antibodies as indicated: Mre11a (Cell Signaling, 4847, 1:1000), RAD50 (Cell Signaling, 3427, 1:1000), NBS1 (Cell Signaling, 14956, 1:500), p-ATM (Cell Signaling, 4526, 1:500), H2AX (Abcam 11174, 1:500), p21 (Cell Signaling, 2947, 1:1000), P-Rb (Cell Signaling, 9301, 1:500), ERK1/2 (Cell Signaling, 9102, 1:1000), P-ERK1/2 (9101, 1:1000). β-actin (Sigma, A5316, 1:10,000 1 h RT) was used as housekeeping controls for the total levels of protein loaded. Membranes were washed in TBST and incubated with secondary antibodies from Licor Biosciences were used goat anti mouse 925-68020 (1:15,000) and goat anti rabbit 925-32211 (1:15,000). […]
Total RNA and microRNA were isolated using miRVana microRNA isolation kit (Ambion). […] The relative quantification of gene expression was determined using the 2-DDCtmethod. […]
For orientation: A western blot detects proteins with antibodies after separation by electrophoresis.

The subject of data set [3] is MRE11a, RAD50, and NBN mRNAs. Nature of the data set: miR-TRAP/RISC TRAP assay. Type of data set: cell-based. Conditions: 293 T cells, 24 hours. As for the experimental part:
293 T cells were co-transfected with a plasmid coding for a flag-tagged dominant negative […] mutant (Clontech) along with a control mimic, miR-99b or miR-494 mimic according to kit instructions. Twenty-four hours later the RNA protein complexes were crosslinked and the RISC complex was immunoprecipitated using an anti-FLAG antibody and RNA was isolated for quantitative real-time PCR of target genes. The fold enrichment was calculated using pre and post IP controls as well as normalization to the control mimic pull-downs.

Data set [4] relates to p21. As to the kind of experiment: Western blot of p21 in HUVEC. It is filed as cell-based, human. Conditions: HUVEC expressing the miRNAs. As for the experimental part:
After treatment, cells were washed in phosphate-buffered saline (PBS) and prepared in RIPA lysis buffer (Sigma) supplemented with Complete Protease inhibitor cocktail (ROCHE) and Phosphatase inhibitors cocktail 2 and 3 (Sigma). Cells were harvested by scraping, and proteins were analyzed by Western blot. Equivalent amounts of protein were loaded on a 4-12% gradient SDS-polyacrylamide gel (BioRAD) and transferred for 30 min to a TransBlot turbo (BioRAD) nitrocellulose membrane. Membranes were blocked in 5% milk or 3% BSA and incubated with antibodies as indicated: Mre11a (Cell Signaling, 4847, 1:1000), RAD50 (Cell Signaling, 3427, 1:1000), NBS1 (Cell Signaling, 14956, 1:500), p-ATM (Cell Signaling, 4526, 1:500), H2AX (Abcam 11174, 1:500), p21 (Cell Signaling, 2947, 1:1000), P-Rb (Cell Signaling, 9301, 1:500), ERK1/2 (Cell Signaling, 9102, 1:1000), P-ERK1/2 (9101, 1:1000). β-actin (Sigma, A5316, 1:10,000 1 h RT) was used as housekeeping controls for the total levels of protein loaded. Membranes were washed in TBST and incubated with secondary antibodies from Licor Biosciences were used goat anti mouse 925-68020 (1:15,000) and goat anti rabbit 925-32211 (1:15,000). Blots were scanned on the Licor Odyssey scanner according to manufacturer's instructions.

The subject of data set [5] is 3'-UTRs of MRE11a, RAD50, and NBN. Nature of the data set: 3'-UTR luciferase reporter assay in HEK-293T cells. Particulars: 24 hours cotransfection. It is filed as cell-based, human. On the procedure:
To determine targets of miR-99b and miR-494, the RNAs were ectopically expressed in HUVECs. Targets were analyzed using a DNA damage array 24 hours after transfection. Three common targets for miR-99b and miR-494 were identified: MRE11a, RAD50 and NBN. These three proteins form the MRN complex which is involved in homologous repair and non-homologous end joining. mRNA targets of miR-494 and miR-99b were also assessed using a miR-TRAP assay. […] Finally, the 3′-UTRs of MRE11a, RAD50, and NBN were cloned into luciferase reporter vectors. The luciferase vectors were contrasfected with miR-494 and miR99b into HEK-293T cells for 24 hours.
MRE11a Luciferase-3-UTR plasmid was purchased from SwitchGear Genomics. RAD50 and NBN luciferase constructs were purchased as pmiR-REPORT vector (Ambion). Luciferase assay reagents were purchased from Switch Gear Genomics and Promega.
Cells were transfected at 50-60% confluence using standard forward transfection protocols using RNAimax reagent (Life Technologies) for miRs/siRNAs and Lipofectamine 2000 for plasmid or plasmid RNA dual transfections. Typically 50 nM RNA and […] plasmid DNA were used for transfections. Target protectors were transfected at a concentration of 50 nM or equivalent to the miR amounts.
(Reporter assays use an easily measured gene product as a stand-in for the process of interest.)

Data set [6] has as its system HUVEC. As to the kind of experiment: β-Gal senescence assay. Conditions: for senescence (β-galactosidase positive cells): HUVEC, 48 hours after transfection, relative to controls. It is filed as cell-based, human. The text has this: After this time cells were washed whit cold PBS and then stain for β-galactosidase activity following manufacture protocol (Senescence Cells Histochemical Staining Kit, Sigma).

In data set [7] the test system is CD44. Nature of the data set: CD44 expression (Human Senescence gene array). Type of data set: cell-based. Particulars: HUVEC. As for the experimental part: Total RNA and microRNA were isolated using miRVana microRNA isolation kit (Ambion). Reverse transcription was performed using TaqMan™ Advanced cDNA Synthesis Kit (Life Tech) according to the manufacture instructions. RT-PCR was performed using multiplexed TaqMan primers (Applied Biosystems). The relative quantification of gene expression was determined using the 2-DDCtmethod. Using this method, we obtained the fold changes in gene expression normalized to an internal control gene, GAPDH or U6 snRNA, respectively. A DNA damage array (LifeTech) was used for targeting analysis and a Human Cellular Senescence array (SA Biosciences) was used for senescence phenotype profiling.
CD44 expression was analyzed by flow cytometry in HUVECs transfected with miR-494 for 48 hours. Cells were washed in PBS and tripsinazed. Cells were incubated in blocking solution (0.5% BSA/10% goat serum) for 30 min and 1 hour in primary antibody-PEcy7 conjugated (CD44, BD, 560533) prepared in blocking solution. Then cells were washed in PBS 3×. Cells were analyzed in a CANTOII equipment.

Data set [8] has as its system telomerase activity in HUVEC. As to the kind of experiment: Telomerase activity assay. Type of data set: cell-based, human. Particulars: 48 hours of ectopic expression. As for the experimental part: […] Cells were lysed and processed according to the manufacturer's instructions (Quantitative Telomerase Detection Kit, Allied Biotech). The telomerase activity in the cell extract was determined through its ability to synthesize telomeric repeats onto an oligonucleotide substrate. The resulting products were subsequently amplified using the polymerase chain reaction (PCR).

The test system of data set [9] is HUVEC. Nature of the data set: HUVEC apoptosis. It is filed as cell-based, human. Conditions: overexpression for 48 hours.

“miR-494: Human miR-494-3p (SEQ ID NO: 1), used as miR mimic; in vivo delivered in 7C1 nanoparticles (sense UGAAACAUACACGGGAAACCUC; delivered in vivo in 7C1 nanoparticles, further chemistry not given here; listed as Homo sapiens)”: the “proliferation relative to controls” value in data set [1] (HUVEC, overexpression for 48 hours) was “less proliferation”. For the same substance, the “proliferation in old HUVECs” value in data set [1] (high-passage HUVEC) is given as “without dramatically changing proliferation”. Moreover, the “protein expression of target mRNAs (MRE11a, RAD50, NBN)” value in data set [2] is listed as “Blocking of protein expression”. For the same substance, the “enrichment of target mRNAs in RISC pulldown relative to controls” value in data set [3] was “enrichment of all of MRE11a, RAD50, and NBN”. In addition, the “expression of cell cycle regulator p21” value in [4] is “greater expression”. The “luciferase expression from 3'-UTR reporter vectors” value in data set [5] was “Significantly less luciferase expression”. Also, the “senescence (β-galactosidase positive cells)” value in data set [6] is “higher number of β-galactosidase positive cells”; in data set [6] (listed as miR-494-3p), “lead to endothelial senescence”. Further, the “senescence phenotype in old HUVECs” value in data set [6] (high-passage HUVEC, β-galactosidase assay) is “restored a senescence phenotype”. The “expression of CD44, a marker of senescence” value in data set [7] is on record as “induced expression of CD44”. For the same substance, the telomerase activity result in data set [8] is recorded as “Impaired telomerase activity”; in [8] (listed as miR-494-3p), “impairing telomerase function”. In addition, the apoptosis result in [9] is “no effect on apoptosis”.
